Source: patent publication US10681909B2, “Herbicidal triazoles” (FMC Corporation, priority 2014, dated 2020)

Legend:
ryegrass, Italian [1] = assay: Test E postemergence; assay type: in vivo, Lolium multiflorum; details: scale 0 to 100
Description: (§1) Seeds of plant species selected from corn (Zea mays), soybean (Glycine max), lambsquarters (Chenopodium album), poinsettia, wild (wild poinsettia, Euphorbia heterophylla), pigweed, palmer (palmer pigweed, Amaranthus palmeri), waterhemp (common waterhemp, Amaranthus rudis), surinam grass (Brachiaria decumbens), crabgrass, large (large crabgrass, Digitaria sanguinalis), crabgrass, Brazilian (Brazilian crabgrass, Digitaria horizontalis), panicum, fall (fall panicum, Panicum dichotomiflorum), foxtail, giant (giant foxtail, Setaria faberii), foxtail, green (green foxtail, Setaria viridis), goosegrass (Eleusine indica), johnsongrass (Sorghum halepense), ragweed (common ragweed, Ambrosia elatior), barnyardgrass (Echinochloa crus-galli), sandbur (southern sandbur, Cenchrus echinatus), arrowleaf sida (Sida rhombifolia), ryegrass, Italian (Italian ryegrass, Lolium multiflorum), dayflower, VA (Virginia dayflower, Commelina virginica), field bindweed (Convolvulus arvensis), cocklebur (common cocklebur, Xanthium strumarium), morningglory (Ipomoea coccinea), nightshade (eastern black nightshade, Solanum ptycanthum), kochia (Kochia scoparia), nutsedge, yellow (yellow nutsedge, Cyperus esculentus), smartweed (ladysthumb smartweed, Polygonum persicaria), velvetleaf (Abutilon theophrasti), horseweed (Conyza canadensis), and beggarticks (hairy beggarticks, Bidens pilosa), were planted into a silt loam soil and treated preemergence with test chemicals formulated in a non-phytotoxic solvent mixture which included a surfactant.
(§2) At the same time, plants from these crop and weed species and also waterhemp_RES1, (ALS & Triazine resistant common waterhemp, Amaranthus rudis), and waterhemp_RES2, (ALS & HPPD resistant common waterhemp, Amaranthus rudis) were planted in pots containing Sunshine Redi-Earth® planting medium comprising spaghnum peat moss, vermiculite, starter nutrients and dolomitic limestone were treated with postemergence applications of test chemicals formulated in the same manner. Plants ranged in height from 2 to 18 cm for postemergence treatments (1- to 4-leaf stage). Treated plants and controls were maintained in a greenhouse for 14 to 21 d, after which time all species were compared to controls and visually evaluated. Plant response ratings, summarized in Table E, are based on a scale of 0 to 100 where 0 is no effect and 100 is complete control. A dash (-) response means no test result.

surinam grass = assay: Test E preemergence; assay type: in vivo, Brachiaria decumbens; details: scale 0 to 100
Description: as §1, §2

ryegrass, Italian [2] = assay: Test E preemergence; assay type: in vivo, Lolium multiflorum; details: scale 0 to 100
Description: as §1, §2

ragweed = assay: Test E preemergence; assay type: in vivo, Ambrosia elatior; details: scale 0 to 100
Description: as §1, §2

field bindweed = assay: Test E preemergence; assay type: in vivo, Convolvulus arvensis; details: scale 0 to 100
Description: as §1, §2

wheat (winter wheat) = assay: Test C preemergence; assay type: in vivo, Triticum aestivum; details: for Wheat plant response rating (0 to 100): Preemergence, visual rating after 13 to 15 d
Description: Seeds of plant species selected from blackgrass (Alopecurus myosuroides), ryegrass, Italian (Italian ryegrass, Lolium multiflorum), wheat (winter wheat, Triticum aestivum), galium (catchweed bedstraw, Galium aparine), corn (Zea mays), crabgrass, large (large crabgrass, Digitaria sanguinalis), foxtail, giant, (giant foxtail, Setaria faberii), johnsongrass (Sorghum halepense), lambsquarters (Chenopodium album), morningglory (Ipomoea coccinea), nutsedge, yellow (yellow nutsedge, Cyperus esculentus), pigweed (Amaranthus retroflexus), ragweed (common ragweed, Ambrosia elatior), soybean (Glycine max), barnyardgrass (Echinochloa crus-galli), oilseed rape (Brassica napus), waterhemp (common waterhemp, Amaranthus rudis), and velvetleaf (Abutilon theophrasti) were planted into a blend of loam soil and sand and treated preemergence with test chemicals formulated in a non-phytotoxic solvent mixture which included a surfactant. At the same time, plants selected from these crop and weed species and also chickweed (common chickweed, Stellaria media), oat, wild (wild oat, Avena fatua), and kochia (Kochia scoparia), were planted in pots containing Sunshine Redi-Earth® planting medium comprising spaghnum peat moss, vermiculite, starter nutrients and dolomitic limestone and treated with postemergence applications of test chemicals formulated in the same manner. Plants ranged in height from 2 to 18 cm (1- to 4-leaf stage) for postemergence treatments. […] A dash (-) response means no test result.

beggarticks [3] = assay: Test E postemergence; assay type: in vivo, Bidens pilosa; details: scale 0 to 100
Description: as §1, §2

beggarticks [4] = assay: Test E preemergence; assay type: in vivo, Bidens pilosa; details: scale 0 to 100
Description: as §1, §2

waterhemp [5] = assay: Test E preemergence; assay type: in vivo, Amaranthus rudis; details: scale 0 to 100
Description: as §1, §2

barnyardgrass = assay: Test E preemergence; assay type: in vivo, Echinochloa crus-galli; details: scale 0 to 100
Description: as §1, §2

foxtail, giant = assay: Test E preemergence; assay type: in vivo, Setaria faberii; details: scale 0 to 100
Description: as §1, §2

velvetleaf = assay: Test E preemergence; assay type: in vivo, Abutilon theophrasti; details: scale 0 to 100
Description: as §1, §2

[6] = test system: waterhemp_RES1 (ALS & Triazine resistant common waterhemp); assay: Test E postemergence; assay type: in vivo, Amaranthus rudis; details: scale 0 to 100
Description: as §1, §2

[7] = test system: waterhemp_RES2 (ALS & HPPD resistant common waterhemp); assay: Test E postemergence; assay type: in vivo, Amaranthus rudis; details: scale 0 to 100
Description: as §1, §2

waterhemp [8] = assay: Test E postemergence; assay type: in vivo, Amaranthus rudis; details: scale 0 to 100
Description: as §1, §2

`Fc1ccc(-c2nc(OCC(F)(F)F)n(Cc3ccnc(C(F)(F)F)c3)n2)cc1` [Compound 30] gave a Plant response rating (ryegrass, Italian [1]; 31 g ai/ha) of 25, a Plant response rating (ryegrass, Italian [1]; 62 g ai/ha) of 25 and a Plant response rating (ryegrass, Italian [1]; 125 g ai/ha) of 40. For the same molecule, the Plant response rating (ryegrass, Italian [1]; 250 g ai/ha) was 50, the Plant response rating (surinam grass; 31 g ai/ha) was 15 and the Plant response rating (surinam grass; 62 g ai/ha) was 20. For the same molecule, the Plant response rating (surinam grass; 125 g ai/ha) was 50, the Plant response rating (surinam grass; 250 g ai/ha) was 70 and the Plant response rating (ryegrass, Italian [2]; 31 g ai/ha) was 30. It also gave a Plant response rating (ryegrass, Italian [2]; 62 g ai/ha) of 40, a Plant response rating (ryegrass, Italian [2]; 125 g ai/ha) of 75 and a Plant response rating (ryegrass, Italian [2]; 250 g ai/ha) of 100. For the same molecule, the Plant response rating (ragweed; 31 g ai/ha) was 65, the Plant response rating (ragweed; 62 g ai/ha) was 50 and the Plant response rating (ragweed; 125 g ai/ha) was 70. The Plant response rating (ragweed; 250 g ai/ha) was 98, the Plant response rating (field bindweed; 31 g ai/ha) was 10 and the Plant response rating (field bindweed; 62 g ai/ha) was 25. The Plant response rating (field bindweed; 125 g ai/ha) was 65, the Plant response rating (field bindweed; 250 g ai/ha) was 75 and the “Wheat plant response rating (0 to 100)” value (wheat (winter wheat); 31 g ai/ha) was 0. The “Wheat plant response rating (0 to 100)” value (wheat (winter wheat); 62 g ai/ha) was 0, the “Plant response rating (scale of 0 to 100 where 0 is no effect and 100 is complete control)” value (wheat (winter wheat); Wheat, preemergence, 250 g ai/ha) was 35 and the Plant response rating (beggarticks [3]; 31 g ai/ha) was 50. For the same molecule, the Plant response rating (beggarticks [3]; 62 g ai/ha) was 60, the Plant response rating (beggarticks [3]; 125 g ai/ha) was 70 and the Plant response rating (beggarticks [3]; 250 g ai/ha) was 75. For the same molecule, the Plant response rating (beggarticks [4]; 31 g ai/ha) was 0, the Plant response rating (beggarticks [4]; 62 g ai/ha) was 10 and the Plant response rating (beggarticks [4]; 125 g ai/ha) was 20. For the same molecule, the Plant response rating (beggarticks [4]; 250 g ai/ha) was 50, the Plant response rating (waterhemp [5]; 31 g ai/ha) was 100 and the Plant response rating (waterhemp [5]; 62 g ai/ha) was 100. The Plant response rating (waterhemp [5]; 125 g ai/ha) was 100, the Plant response rating (waterhemp [5]; 250 g ai/ha) was 100 and the Plant response rating (barnyardgrass; 31 g ai/ha) was 20. For the same molecule, the Plant response rating (barnyardgrass; 62 g ai/ha) was 70, the Plant response rating (barnyardgrass; 125 g ai/ha) was 75 and the Plant response rating (barnyardgrass; 250 g ai/ha) was 95. It also gave a Plant response rating (foxtail, giant; 31 g ai/ha) of 95, a Plant response rating (foxtail, giant; 62 g ai/ha) of 98 and a Plant response rating (foxtail, giant; 125 g ai/ha) of 98. For the same molecule, the Plant response rating (foxtail, giant; 250 g ai/ha) was 100, the Plant response rating (velvetleaf; 31 g ai/ha) was 50 and the Plant response rating (velvetleaf; 62 g ai/ha) was 65. It also gave a Plant response rating (velvetleaf; 125 g ai/ha) of 75, a Plant response rating (velvetleaf; 250 g ai/ha) of 90 and a Plant response rating ([6]; 31 g ai/ha) of 95. For the same molecule, the Plant response rating ([6]; 62 g ai/ha) was 98, the Plant response rating ([6]; 125 g ai/ha) was 100 and the Plant response rating ([6]; 250 g ai/ha) was 95. For the same molecule, the Plant response rating ([7]; 31 g ai/ha) was 95, the Plant response rating ([7]; 62 g ai/ha) was 95 and the Plant response rating ([7]; 125 g ai/ha) was 95. It also gave a Plant response rating ([7]; 250 g ai/ha) of 95, a Plant response rating (waterhemp [8]; 31 g ai/ha) of 95 and a Plant response rating (waterhemp [8]; 62 g ai/ha) of 95. For the same molecule, the Plant response rating (waterhemp [8]; 125 g ai/ha) was 95 and the Plant response rating (waterhemp [8]; 250 g ai/ha) was 95.
